In ChEMBL document CHEMBL4814007, “Structure-based discovery of SIAIS001 as an oral bioavailability ALK degrader constructed from Alectinib” (Eur J Med Chem, 2021):
Activity calls are given as the source filed them. The rule behind the calls is not given here.

Key:
[1] = biological target: T1, ALK tyrosine kinase receptor (Homo sapiens, UniProt Q9UM73); test: Inhibition of ALK in human SR cells assessed as reduction in STAT3 phosphorylation at 50 nM; assay type: cell-based
Target sequence in this assay (Q9UM73 19-1620 limits assumed): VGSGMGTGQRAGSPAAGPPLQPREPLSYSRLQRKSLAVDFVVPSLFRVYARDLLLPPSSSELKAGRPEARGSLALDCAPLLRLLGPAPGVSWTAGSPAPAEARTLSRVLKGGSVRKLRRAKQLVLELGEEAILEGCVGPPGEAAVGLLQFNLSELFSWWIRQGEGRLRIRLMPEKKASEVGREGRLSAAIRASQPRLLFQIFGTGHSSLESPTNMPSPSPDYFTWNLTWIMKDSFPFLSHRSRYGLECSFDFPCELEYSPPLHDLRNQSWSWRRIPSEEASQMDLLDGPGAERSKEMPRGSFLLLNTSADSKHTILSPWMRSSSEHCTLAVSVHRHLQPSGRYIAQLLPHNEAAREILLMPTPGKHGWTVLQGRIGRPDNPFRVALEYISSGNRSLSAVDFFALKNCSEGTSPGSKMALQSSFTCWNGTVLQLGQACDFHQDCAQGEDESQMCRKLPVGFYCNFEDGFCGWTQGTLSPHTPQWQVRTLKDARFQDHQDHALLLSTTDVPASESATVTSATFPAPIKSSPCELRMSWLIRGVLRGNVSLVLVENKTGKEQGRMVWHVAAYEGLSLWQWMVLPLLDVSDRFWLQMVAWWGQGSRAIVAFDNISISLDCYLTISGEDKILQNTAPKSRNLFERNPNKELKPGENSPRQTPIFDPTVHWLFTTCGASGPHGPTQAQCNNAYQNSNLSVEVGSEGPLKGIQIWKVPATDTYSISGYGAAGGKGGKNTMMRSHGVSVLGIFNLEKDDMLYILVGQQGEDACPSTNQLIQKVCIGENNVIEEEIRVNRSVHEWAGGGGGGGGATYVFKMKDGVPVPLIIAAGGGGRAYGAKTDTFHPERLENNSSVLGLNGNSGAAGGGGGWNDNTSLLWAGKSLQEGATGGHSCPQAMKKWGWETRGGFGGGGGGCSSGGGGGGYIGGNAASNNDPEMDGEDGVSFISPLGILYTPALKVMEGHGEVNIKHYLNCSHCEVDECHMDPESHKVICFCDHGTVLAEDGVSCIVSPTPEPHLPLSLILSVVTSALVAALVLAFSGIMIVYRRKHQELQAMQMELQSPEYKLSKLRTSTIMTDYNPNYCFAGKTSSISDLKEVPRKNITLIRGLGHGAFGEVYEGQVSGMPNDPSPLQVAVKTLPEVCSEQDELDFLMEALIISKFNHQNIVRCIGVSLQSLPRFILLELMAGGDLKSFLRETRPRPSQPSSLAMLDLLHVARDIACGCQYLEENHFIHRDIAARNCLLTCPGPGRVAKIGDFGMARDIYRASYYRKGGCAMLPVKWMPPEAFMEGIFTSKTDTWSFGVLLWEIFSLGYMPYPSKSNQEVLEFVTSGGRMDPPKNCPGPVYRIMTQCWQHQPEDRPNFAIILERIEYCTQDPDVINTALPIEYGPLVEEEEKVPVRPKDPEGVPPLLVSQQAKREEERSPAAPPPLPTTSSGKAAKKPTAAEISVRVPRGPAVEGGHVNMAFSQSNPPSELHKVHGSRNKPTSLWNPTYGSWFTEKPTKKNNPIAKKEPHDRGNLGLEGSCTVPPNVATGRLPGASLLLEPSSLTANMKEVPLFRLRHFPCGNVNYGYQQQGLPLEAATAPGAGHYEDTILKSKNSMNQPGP

SR [2] = test: Induction of cell cycle arrest in human SR cells assessed as increase in accumulation at G1/S phase at 100 nM incubated for 24 hrs; assay type: functional, cell-based
[3] = biological target: T1, ALK tyrosine kinase receptor; test: Inhibition of ALK phosphorylation in human SR cells at 0.5 nM; assay type: cell-based
Target sequence in this assay (Q9UM73 19-1620 limits assumed): as above

[4] = biological target: T1, ALK tyrosine kinase receptor; test: Inhibition of ALK (unknown origin)
Target sequence in this assay (Q9UM73 whole entry): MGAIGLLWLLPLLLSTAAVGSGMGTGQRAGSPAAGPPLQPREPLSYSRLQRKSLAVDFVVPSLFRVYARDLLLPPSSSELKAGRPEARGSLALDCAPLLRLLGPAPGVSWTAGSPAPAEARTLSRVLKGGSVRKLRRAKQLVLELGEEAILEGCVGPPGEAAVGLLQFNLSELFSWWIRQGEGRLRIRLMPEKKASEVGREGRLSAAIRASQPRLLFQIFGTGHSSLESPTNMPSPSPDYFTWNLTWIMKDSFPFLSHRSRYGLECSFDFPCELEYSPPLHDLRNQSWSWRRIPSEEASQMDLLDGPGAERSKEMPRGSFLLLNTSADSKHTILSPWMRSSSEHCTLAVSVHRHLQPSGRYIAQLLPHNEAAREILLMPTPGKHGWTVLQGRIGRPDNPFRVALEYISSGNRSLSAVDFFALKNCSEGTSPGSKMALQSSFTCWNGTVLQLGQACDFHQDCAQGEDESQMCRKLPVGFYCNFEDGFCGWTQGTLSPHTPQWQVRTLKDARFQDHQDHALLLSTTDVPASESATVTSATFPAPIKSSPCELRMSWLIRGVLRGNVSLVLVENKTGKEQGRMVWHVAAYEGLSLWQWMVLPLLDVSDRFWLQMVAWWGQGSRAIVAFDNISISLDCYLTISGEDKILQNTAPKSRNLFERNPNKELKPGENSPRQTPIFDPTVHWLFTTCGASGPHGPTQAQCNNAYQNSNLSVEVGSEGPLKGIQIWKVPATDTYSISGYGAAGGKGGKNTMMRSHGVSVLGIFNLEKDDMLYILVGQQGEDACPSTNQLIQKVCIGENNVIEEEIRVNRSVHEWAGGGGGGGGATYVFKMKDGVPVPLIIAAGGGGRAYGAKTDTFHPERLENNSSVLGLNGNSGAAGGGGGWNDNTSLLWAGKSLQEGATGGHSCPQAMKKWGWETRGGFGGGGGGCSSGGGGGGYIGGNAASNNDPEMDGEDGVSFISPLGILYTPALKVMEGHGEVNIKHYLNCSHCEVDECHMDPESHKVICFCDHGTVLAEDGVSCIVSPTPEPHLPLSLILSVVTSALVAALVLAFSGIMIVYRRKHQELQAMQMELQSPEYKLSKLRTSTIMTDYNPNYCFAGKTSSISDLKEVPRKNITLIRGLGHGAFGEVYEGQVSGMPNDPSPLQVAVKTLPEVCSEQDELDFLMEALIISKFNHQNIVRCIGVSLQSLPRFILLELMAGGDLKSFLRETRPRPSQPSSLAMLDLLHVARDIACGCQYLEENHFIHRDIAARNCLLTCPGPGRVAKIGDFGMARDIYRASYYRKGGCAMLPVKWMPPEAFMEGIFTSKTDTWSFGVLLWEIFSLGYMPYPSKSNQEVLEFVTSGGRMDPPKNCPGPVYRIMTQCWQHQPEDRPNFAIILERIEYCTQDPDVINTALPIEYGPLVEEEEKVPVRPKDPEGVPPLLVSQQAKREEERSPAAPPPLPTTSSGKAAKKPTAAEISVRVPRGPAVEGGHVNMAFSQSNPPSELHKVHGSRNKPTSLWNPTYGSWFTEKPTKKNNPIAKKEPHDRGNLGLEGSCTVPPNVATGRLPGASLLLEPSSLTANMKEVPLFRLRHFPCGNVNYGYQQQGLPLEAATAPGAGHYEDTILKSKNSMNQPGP

[5] = Cmax in rat at 2 mg/kg, ip; assay type: ADME, organism-based; parameters: route intraperitoneal, dose 2 mg/kg; settings: in vivo
SR [6] = test: Potency index, ratio of ceritinib IC50 to test compound IC50 for antiproliferative activity against ALK positive human SR cells; assay type: functional
[7] = biological target: T2, Protein cereblon/ALK tyrosine kinase receptor (Homo sapiens, UniProt Q9UM73+Q96SW2); test: Protac activity at CRBN/ALK in human SR cells assessed as protein abundance at 500 nM by Western blot analysis (reference value: 1); assay type: cell-based
Target sequence in this assay (Q96SW2 whole entry partner): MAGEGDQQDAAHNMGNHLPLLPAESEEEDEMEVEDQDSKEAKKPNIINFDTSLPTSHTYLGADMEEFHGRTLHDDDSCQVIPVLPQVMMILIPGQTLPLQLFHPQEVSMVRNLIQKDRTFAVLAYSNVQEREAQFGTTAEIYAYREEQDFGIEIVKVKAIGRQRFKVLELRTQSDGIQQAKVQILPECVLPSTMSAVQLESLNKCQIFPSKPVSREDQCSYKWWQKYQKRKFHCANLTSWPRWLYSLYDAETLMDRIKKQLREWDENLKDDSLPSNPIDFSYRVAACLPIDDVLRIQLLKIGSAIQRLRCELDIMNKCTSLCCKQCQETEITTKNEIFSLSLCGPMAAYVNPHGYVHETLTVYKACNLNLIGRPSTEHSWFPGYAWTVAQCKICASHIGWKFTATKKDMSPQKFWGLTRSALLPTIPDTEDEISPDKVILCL
Target sequence in this assay (Q9UM73 19-1620 limits assumed): as the sequence (Q9UM73 19-1620 limits assumed) above

[8] = biological target: T2, Protein cereblon/ALK tyrosine kinase receptor; test: Protac activity at CRBN/ALK in human SR cells assessed as protein abundance at 0.05 nM by Western blot analysis (reference value: 1); assay type: cell-based
Target sequence in this assay (Q96SW2 whole entry partner): as the sequence (Q96SW2 whole entry partner) above
Target sequence in this assay (Q9UM73 19-1620 limits assumed): as the sequence (Q9UM73 19-1620 limits assumed) above

[9] = Stability in liver microsomes (unknown origin); assay type: ADME, Microsome
[10] = biological target: T2, Protein cereblon/ALK tyrosine kinase receptor; test: Protac activity at CRBN/ALK in human SR cells assessed as protein abundance at 5 nM by Western blot analysis (reference value: 1); assay type: cell-based
Target sequence in this assay (Q96SW2 whole entry partner): as the sequence (Q96SW2 whole entry partner) above
Target sequence in this assay (Q9UM73 19-1620 limits assumed): as the sequence (Q9UM73 19-1620 limits assumed) above

[11] = biological target: T2, Protein cereblon/ALK tyrosine kinase receptor; test: Protac activity at CRBN/ALK in human SR cells assessed as increase in ALK degradation at 50 nM in presence of MLN4924/MG132 by Western blot analysis; assay type: cell-based
Target sequence in this assay (Q96SW2 whole entry partner): as the sequence (Q96SW2 whole entry partner) above
Target sequence in this assay (Q9UM73 19-1620 limits assumed): as the sequence (Q9UM73 19-1620 limits assumed) above

[12] = Toxicity in rat at 10 mg/kg, po assessed as adverse effect; assay type: organism-based; settings: in vivo
[13] = Oral bioavailability in rat at 10 mg/kg; assay type: ADME, organism-based; settings: in vivo
[14] = Plasma concentration in rat at 10 mg/kg, po measured after 4 hrs; assay type: ADME, organism-based
[15] = biological target: T2, Protein cereblon/ALK tyrosine kinase receptor; test: Protac activity at CRBN/ALK in human SR cells assessed as protein abundance at 50 nM by Western blot analysis (reference value: 1); assay type: cell-based
Target sequence in this assay (Q96SW2 whole entry partner): as the sequence (Q96SW2 whole entry partner) above
Target sequence in this assay (Q9UM73 19-1620 limits assumed): as the sequence (Q9UM73 19-1620 limits assumed) above

SR [16] = test: Induction of cell cycle arrest in human SR cells assessed as increase in accumulation at S phase at 100 nM incubated for 24 hrs; assay type: functional, cell-based
[17] = biological target: T2, Protein cereblon/ALK tyrosine kinase receptor; test: Protac activity at CRBN/ALK in human SR cells assessed as increase in ALK degradation at 500 nM by Western blot analysis; assay type: cell-based
Target sequence in this assay (Q96SW2 whole entry partner): as the sequence (Q96SW2 whole entry partner) above
Target sequence in this assay (Q9UM73 19-1620 limits assumed): as the sequence (Q9UM73 19-1620 limits assumed) above

[18] = biological target: T2, Protein cereblon/ALK tyrosine kinase receptor; test: Protac activity at CRBN/ALK in human SR cells assessed as induction of ALK degradation at 0.05 to 500 nM by Western blot analysis relative to control; assay type: cell-based; settings: dose 0.05-500 nM
[19] = biological target: T2, Protein cereblon/ALK tyrosine kinase receptor; test: Protac activity at CRBN/ALK in human SR cells assessed as protein abundance at 0.5 nM by Western blot analysis (reference value: 1); assay type: cell-based
[20] = biological target: T2, Protein cereblon/ALK tyrosine kinase receptor; test: Protac activity at CRBN/ALK in human SR cells assessed as increase in ALK degradation at 50 nM in presence of MG132 by Western blot analysis; assay type: cell-based
[21] = biological target: T2, Protein cereblon/ALK tyrosine kinase receptor; test: Protac activity at CRBN/ALK in human SR cells assessed as induction of ALK degradation by Western blot analysis; assay type: cell-based
Target sequence in this assay (Q9UM73 whole entry): as the sequence (Q9UM73 whole entry) above
Target sequence in this assay (Q96SW2 whole entry): as the sequence (Q96SW2 whole entry partner) above

SR [22] = test: Antiproliferative activity against ALK positive human SR cells; assay type: functional, cell-based

## CCc1cc2c(cc1N1CCC(N3CCN(CCCC#Cc4cccc5c4CN(C4CCC(=O)NC4=O)C5=O)CC3)CC1)C(C)(C)c1[nH]c3cc(C#N)ccc3c1C2=O (configuration not stated)
[1]
  inhibition: Active
SR [2]
  Activity: Active
[3]
  inhibition: Active
[4]
  IC50: 3.3 nM
[5]
  Cmax: 83.5 ng/mL
SR [6]
  Ratio: 5
[7]
  Activity: 0.37
[8]
  Activity: 1.03
[9]
  Stabilty: Stable
[10]
  Activity: 0.56
[11]
  Activity: inactive
[12]
  Activity: Non-Toxic
[13]
  bioavailability: 16%
[14]
  concentration at 4 h: 100 ng/mL
[15]
  Activity: 0.37
SR [16]
  Activity: inactive
[17]
  Activity: Active
[18]
  Emax: 70.3%
[19]
  Activity: 0.92
[20]
  Activity: inactive
[21]
  DC50: 3900 nM
SR [22]
  IC50: 0.9 nM
